Here are results for 1 compound from patent US8106092B2, “Treatment of solid cancers” (priority 2004, dated 2012).

The experiment deals with B16-OVA lung metastases. The experiment in a line: B16-OVA melanoma lung metastasis model. It is filed as in vivo, C57BL/6 mice. As to the method:
FIGS. 4A to D are graphical representations showing protection against secondary tumors following cure of primary tumors with PEP005. (A) C57BL/6 mice received 5×10^5 Lewis lung-OVA s.c. on the back on day less 7 (d−7). When these primary tumors had reached an average 13.6 mm^2±1.8 SE (range 10-25 mm^2) on d0 they were treated once with 16 μg of PEP005 delivered i.t. In eight mice these primary tumors were cured, and these mice received 5×10^5 Lewis lung-OVA s.c. on d4 on the opposite flank from the primary tumors. The emergence of these secondary tumors was monitored over time (PEP005 cured). In a parallel group of animals (n=5) PEP005 treatment regressed the primary tumors, but after 11-13 days the primary tumors re-emerged. These animals also received secondary tumors as above and their emergence was again monitored over time (PEP005 regressed). Two control groups were included. One group (n=6) received no primary tumors, but was treated s.c. with PEP005 and received secondary tumors on the opposite flank (white triangles, PEP005 s.c.). The second control group (n=8) also received no primary tumors, was not treated with PEP005, and received secondary tumors as above (Controls). […] Secondary B16-OVA (10^5) were injected i.v. on d6 and animals were sacrificed on d27 and lung metastases counted. […]

For `C/C=C(/C)C(=O)O[C@H]1C(C)=C[C@]23C(=O)[C@@H](C=C(CO)[C@@H](O)[C@]12O)[C@H]1[C@@H](C[C@H]3C)C1(C)C` [PEP005, ingenol-3-angelate], where the note is “partial regression of the primary tumors by PEP005”, the “growth of lung metastases” value is reported as “failed to inhibit significantly”. Moreover, where the note is “s.c. primary B16-OVA cured by PEP005, B16-OVA i.v. six days after treatment, Wilcoxon p=0.046”, the “number of lung metastases” value is recorded as “reduce significantly”.
